Columns and labels:
[1] = test system: Drosophila melanogaster DDT-resistant 91-R strain; assay: DDT mortality bioassay (glass vial, 24 h) after two days of inhibitor feeding; format: in vivo; settings: for LD50: 24 h; for ratio of LD50 optimal / sub-optimal rearing conditions / Resistance Ratio: DDT; for ratio of LD50 optimal / sub-optimal rearing conditions: no inhibitor; for reduction of level of DDT resistance: optimal rearing condition; for decrease of DDT resistance: sub-optimal rearing condition
Source text: (§1) Flies of 1-2 day old (females and males) were introduced into a plastic vial (28 mm×95 mm height) and fed with inhibitors mixed in 5% sucrose solution. […] After fed with inhibitor solutions for two days, 20 females or males from either the 91-R or 91-C strains were used in all DDT bioassays. To explore the effect of inhibitors, fruit flies under two different rearing conditions: optimal rearing condition and sub-optimal rearing condition were used in our study. Under optimal rearing condition, 100 pairs of flies were maintained in bottles (containing 50 ml standard medium) and allowed for laying eggs for four days. All adults were then removed to make sure the suitable density of larva. Differently, adults were not removed until emerging of next generation under sub-optimal rearing condition. Simply, optimal rearing condition provided enough food for flies, but sub-optimal rearing condition faced certain food pressure.
(§2) Briefly, various concentrations of DDT dissolved in acetone were transferred into 20 ml transparent glass vials and each rolled on its side in a fume hood till the acetone evaporated. […] Vials were capped with cotton plugs moistened with a 5% sucrose solution in distilled water. The number of dead flies were recorded after 24 hours.
(§3) For RT-qPCR, statistical analysis was performed using Student's t-test to compare the results between 91-C and 91-R. For glycogen assay and body weight, One-way ANOVA was used, and means comparisons were made by using Student's t test (p<0.05) by using SPSS software (Version 19.0; SPSS Inc., USA). The median lifespan under fed or starvation conditions were calculated using the Probit function in SPSS (Version 19.0; SPSS Inc, USA). For mortality bioassay, Probit analysis was conducted by using SPSS software (Version 19.0; SPSS Inc, USA).

[2] = test system: Drosophila melanogaster DDT-susceptible 91-C strain; assay: as above; format: in vivo; settings: for LD50: 24 h; for reduction of level of DDT resistance: optimal rearing condition; for decrease of DDT resistance: sub-optimal rearing condition
Source text: as §1, §2, §3

[3] = test system: GSK3β-PO; settings: listed beside gene GSK3β-PO; cited from earlier work
[4] = test system: Drosophila 91-R strain; assay: Cypermethrin mortality bioassay (glass vial, 24 h) after inhibitor feeding; format: in vivo, Drosophila melanogaster; settings: for LD50: 24 h
Protocol: (§4) Adult flies were placed in bottles with instant drosophila blue diet (Formula 2-24®, carolina.com) made with inhibitor solutions for two days.
(§5) 200 μl of each concentration of solution as well as 200 μl acetone were transferred into 20 ml transparent glass vials and rolled on its side in a fume hood till the acetone completely evaporated. 20 flies of 91C, 91R and Canton-S stains were placed into vials for either female or male. Vials were capped with cotton plugs moistened with a 5% sucrose solution in distilled water. The number of dead flies were recorded after 24 hours. […] For each strain by sex combination, 8 concentrations of dosage were used including 0 control. A total of 8×3×20 flies were used for each of strain by sex combinations. For mortality bioassay, Probit analysis tool in SAS was used (SAS 9.4, SAS Ins, USA).

[5] = test system: Drosophila Canton-S strain; assay: as above; format: in vivo, Drosophila melanogaster; settings: for LD50: 24 h
Protocol: as §4, §5

[6] = test system: Drosophila 91-C strain; assay: as above; format: in vivo, Drosophila melanogaster; settings: for LD50: 24 h
Protocol: as §4, §5

[7] = DDT LD50, 91-R♀, optimal dietary rearing
[8] = DDT LD50, 91-R♀, sub-optimal dietary rearing
[9] = DDT LD50, 91-R♂, optimal dietary rearing
[10] = DDT LD50, 91-R♂, sub-optimal dietary rearing
[11] = DDT LD50, 91-C♀, optimal dietary rearing, Hys 10 mM, LiCl 20 mM fed 2 days
[12] = DDT LD50, 91-C♂ (so in the source), sub-optimal dietary rearing
[13] = DDT LD50, 91-C♂, optimal dietary rearing

Question: What does the source list for `Clc1ccc(C(c2ccc(Cl)cc2)C(Cl)(Cl)Cl)cc1` [DDT]?
Answer: LD50 [1, 7]: 136883.00 μg/vial; LD50 [1, 8]: 523.34 μg/vial; LD50 [1, 9]: 66073.00 μg/vial; LD50 [1, 10]: 143.70 μg/vial; ratio of LD50 optimal / sub-optimal rearing conditions ([1]; 91-R females): 261.56; ratio of LD50 optimal / sub-optimal rearing conditions ([1]; 91-R males): 459.80; LD50 [2, 11]: 51.59 μg/vial; LD50 [2, 12]: 6.77 μg/vial; LD50 [2, 13]: 19.81 μg/vial; ratio of LD50 optimal / sub-optimal rearing condition ([2]; DDT, 91-C females, no inhibitor): 7.62

Question: With `NC1=N[C@H]2c3c([nH]c(Br)c3Br)C(=O)N3CCC[C@]23N1` [Dibromocantharelline] as the molecule, how does the IC50 [3] read?
Answer: The IC50 was 3 µM.

Question: Which IC50 [3] does the source give for `NC1=NC(=O)/C(=C2\CCNC(=O)c3[nH]c(Br)cc32)N1` [Hymenialdesine] here?
Answer: Its IC50 is 0.01 µM.

Question: What does the source list for `NN.O=S(=O)(O)O` [Hys, hydrazine sulphate]?
Answer: Synergism Ratio ([4]; 91-R♀): 3.87; Synergism Ratio ([4]; 91-R♂): 3.88; Synergism Ratio ([5]; Canton-S ♀): 3.58; Synergism Ratio ([5]; Canton-S ♂): 3.78; Synergism Ratio ([6]; 91-C♀): 4.39; Synergism Ratio ([6]; 91-C♂): 5.73

Question: What does the source list for `[Cl-].[Li+]` [LiCl, lithium chloride]?
Answer: IC50 [3]: 2000 µM; reduction of level of DDT resistance ([1]; 91-R females): 1.6 fold; decrease of DDT resistance ([1]; 91-R females): 3.3 fold; reduction of level of DDT resistance ([1]; 91-R males): 20.5 fold; decrease of DDT resistance ([1]; 91-R males): no significant decreased in resistance levels; resistance ratio reduction / decrease of DDT resistance ([1]; 91-R, both sexes, optimal rearing conditions): 1.6-20.5 fold; LD50 [1, 7]: 83375.00 μg/vial; LD50 [1, 8]: 157.63 μg/vial; LD50 [1, 9]: 3224.00 μg/vial; LD50 [1, 10]: 126.69 μg/vial; Resistance Ratio ([1]; 91-R♀, optimal rearing): 1.64; Resistance Ratio ([1]; 91-R♀, sub-optimal rearing): 3.37; Resistance Ratio ([1]; 91-R♂, optimal rearing): 20.49; Resistance Ratio ([1]; 91-R♂, sub-optimal rearing): 1.13; reduction of level of DDT resistance ([2]; 91-C females): 4.2 fold; decrease of DDT resistance ([2]; 91-C females): 2.3 fold; reduction of level of DDT resistance ([2]; 91-C males): 2.7 fold; decrease of DDT resistance ([2]; 91-C males): 2.3 fold; LD50 ([2]; DDT LD50, 91-C♀ (so in the source), sub-optimal dietary rearing): 0.94 μg/vial; LD50 [2, 11]: 12.17 μg/vial; LD50 [2, 12]: 2.96 μg/vial; LD50 [2, 13]: 7.22 μg/vial; Resistance Ratio ([2]; DDT, 91-C♀ (so in the source), sub-optimal rearing): 2.26; Resistance Ratio ([2]; DDT, 91-C♂ (so in the source), sub-optimal rearing): 2.29; Resistance Ratio ([2]; DDT, 91-C♂, optimal rearing): 2.74; Resistance Ratio ([2]; control LD50 vs inhibitor-fed, DDT, 91-C♀, optimal rearing): 4.24; Synergism Ratio ([4]; 91-R♀): 4.58; LD50 ([4]; 91-R♀): 0.17 μg/vial; Synergism Ratio ([4]; 91-R♂): 3.36; LD50 ([4]; 91-R♂): 0.08 μg/vial; Synergism Ratio ([5]; Canton-S ♀): 0.74; LD50 ([5]; Canton-S ♀, Hys 10 mM, LiCl 20 mM in diet 2 days): 0.78 μg/vial; Synergism Ratio ([5]; Canton-S ♂): 0.60; LD50 ([5]; Canton-S ♂): 0.9 μg/vial; Synergism Ratio ([6]; 91-C♀): 4.93; LD50 ([6]; 91-C♀): 0.13 μg/vial; Synergism Ratio ([6]; 91-C♂): 11.92; LD50 ([6]; 91-C♂): 0.03 μg/vial
